The series deals with CCRIS mutagenicity, Ames/micronucleus/aberration tests. As to the kind of experiment: CCRIS mutagenicity studies. Conditions: Test System: AMES SALMONELLA TYPHIMURIUM
Setting [1] is: Strain/Indicator: TA98, Metabolic Activation: NONE, Method: PREINCUBATION
[2] abbreviates: Strain/Indicator: TA100, Metabolic Activation: NONE, Method: PREINCUBATION

Active and inactive are the calls of the source. No rule for the calls is given here.

The source of these data is PubChem BioAssay AID1259407 (Chemical Carcinogenesis Research Information System (CCRIS), 2018).

Regarding `NCCCCC(N)C(=O)O` (stereo not drawn), the mutagenic call (Strain/Indicator: TA98, Metabolic Activation: RAT LIVER S-9, CHLOROPHENE, Method: STANDARD PLATE (COMPOUND HEATED AT 250 DEGREES CELSIUS FOR 20 MIN)) is “active; positive”.
Consider `Oc1ccc(Cl)cc1Cc1ccccc1`, for which the mutagenic call is “inactive; negative” (Strain/Indicator: TA98, Metabolic Activation: HAMSTER, LIVER, S-9, AROCLOR 1254 (10%), Method: PREINCUBATION); “inactive; negative” under setting [1]; “inactive; negative” (Strain/Indicator: TA98, Metabolic Activation: RAT, LIVER, S-9, AROCLOR 1254 (10%), Method: PREINCUBATION); “inactive; negative” (Strain/Indicator: TA100, Metabolic Activation: HAMSTER, LIVER, S-9, AROCLOR 1254 (10%), Method: PREINCUBATION); “inactive; negative” under setting [2]; “inactive; negative” (Strain/Indicator: TA100, Metabolic Activation: RAT, LIVER, S-9, AROCLOR 1254 (10%), Method: PREINCUBATION). Further, the mutagenic call by setting is: (Strain/Indicator: TA1535, Metabolic Activation: HAMSTER, LIVER, S-9, AROCLOR 1254 (10%), Method: PREINCUBATION) “inactive; negative”; (Strain/Indicator: TA1535, Metabolic Activation: NONE, Method: PREINCUBATION) “inactive; negative”; (Strain/Indicator: TA1535, Metabolic Activation: RAT, LIVER, S-9, AROCLOR 1254 (10%), Method: PREINCUBATION) “inactive; negative”; (Strain/Indicator: TA1537, Metabolic Activation: HAMSTER, LIVER, S-9, AROCLOR 1254 (10%), Method: PREINCUBATION) “inactive; negative”; (Strain/Indicator: TA1537, Metabolic Activation: NONE, Method: PREINCUBATION) “inactive; negative”; (Strain/Indicator: TA1537, Metabolic Activation: RAT, LIVER, S-9, AROCLOR 1254 (10%), Method: PREINCUBATION) “inactive; negative”.
In the case of `O=[N+]([O-])c1cccc2cn[nH]c12`, the mutagenic call (Strain/Indicator: TA98, Metabolic Activation: NONE, Method: STANDARD PLATE) is “active; positive”.
For `Cc1cc2ccccc2c2cc([N+](=O)[O-])c3ccccc3c12`, the mutagenic call under setting [1] was “active; positive”; the mutagenic call (Strain/Indicator: TA98, Metabolic Activation: RAT, LIVER, S-9, Method: PREINCUBATION) is “active; positive”; the mutagenic call under setting [2] was “active; positive”; the mutagenic call (Strain/Indicator: TA100, Metabolic Activation: RAT, LIVER, S-9, Method: PREINCUBATION) was “active; positive”.
